Assay results taken from patent US12370168B2 (scPharmaceuticals Inc., priority 2013, dated 2025).
Read-outs that look alike come from different tables or passages of the source.

Key:
[1] = 8 mg/mL; for Osmolality / [Furosemide] / pH: three months
[2] = Example 4 short term storage stability of 8 mg/mL furosemide Tris-buffered solutions; settings: over 48 hours
Method: Upon preparation, samples were filtered through 0.2 μm nylon filters.
The osmolality values of 50 μL aliquots of each sample were measured by freezing point depression.
Aliquots of each sample were stored at each condition and subsequently filtered and analyzed after 24 and 48 hours of storage.

[3] = 25 mM Tris, nominal pH 7.0, 70° C.
[4] = 25 mM Tris, nominal pH 7.4, 70° C.
[5] = 25 mM Tris, nominal pH 8.0, 70° C.
[6] = 50 mM Tris, nominal pH 7.0, 70° C.
[7] = 50 mM Tris, nominal pH 7.4, 70° C.
[8] = 50 mM Tris, nominal pH 8.0, 70° C.
[9] = 100 mM Tris, nominal pH 7.0, 70° C.
[10] = 100 mM Tris, nominal pH 7.4, 70° C.
[11] = 100 mM Tris, nominal pH 8.0, 70° C.
[12] = 25, 50, 100 mM Tris, pH 7.0, 7.4, 8.0, 70° C., 3 months
[13] = Tris buffer pH 7.0, 7.5, 8.0, −20° C., 2° C.-8° C., 25° C., 40° C.

With `NS(=O)(=O)c1cc(C(=O)O)c(NCc2ccco2)cc1Cl` [Furosemide, 4-chloro-2-(furan-2-ylmethylamino)-5-sulfamoyl-benzoic acid] the Osmolality [1, 3] was 308 mOsm/kg H2O, the “[Furosemide]” value [1, 3] was under 0.002 mg/mL and the pH [1, 3] was 4.44. The Osmolality [1, 4] was 299 mOsm/kg H2O, the “[Furosemide]” value [1, 4] was under 0.002 mg/mL and the pH [1, 4] was 4.57. The Osmolality [1, 5] was 297 mOsm/kg H2O, the “[Furosemide]” value [1, 5] was 1.16 mg/mL and the pH [1, 5] was 5.26. For the same molecule, the Osmolality [1, 6] was 305 mOsm/kg H2O, the “[Furosemide]” value [1, 6] was under 0.002 mg/mL and the pH [1, 6] was 4.50. The Osmolality [1, 7] was 311 mOsm/kg H2O, the “[Furosemide]” value [1, 7] was under 0.002 mg/mL and the pH [1, 7] was 4.73. For the same molecule, the Osmolality [1, 8] was 311 mOsm/kg H2O, the “[Furosemide]” value [1, 8] was 3.60 mg/mL and the pH [1, 8] was 7.30. The Osmolality [1, 9] was 306 mOsm/kg H2O, the “[Furosemide]” value [1, 9] was under 0.002 mg/mL and the pH [1, 9] was 4.54. The Osmolality [1, 10] was 312 mOsm/kg H2O, the “[Furosemide]” value [1, 10] was 0.58 mg/mL and the pH [1, 10] was 5.68. The Osmolality [1, 11] was 303 mOsm/kg H2O, the “[Furosemide]” value [1, 11] was 3.67 mg/mL and the pH [1, 11] was 7.56. The “change in furosemide concentration” value [1, 12] was “decreased significantly”, the change in osmolality [1, 12] was “slightly increased” and the “change in pH” value [1, 12] was “decreased significantly”. The color of samples [1, 12] was “dark brown”, the “change in furosemide concentration” value [2, 13] was “No decrease” and the “pH deviation from the initial value” [2, 13] was at most 0.1 units. For the same molecule, the osmolality over time ([2]; Tris buffer) was “consistent”.
